Assay results reported in patent US11304929B2, “Tosylacetate based compounds and derivatives thereof as PHGDH inhibitors” (priority 2017, dated 2022).
Like-named read-outs stand apart in the source and are kept apart here.

Target: PHGDH (Homo sapiens (Human), UniProt O43175)
Assay: 3-Phosphoglycerate Dehydrogenase (PHGDH) Fluorescence Intensity Assay, run at two NAD/3-PG ratios: PHGDH_HIGH_NAD/3-PG (250 μM NAD/500 μM 3-PG) and PHGDH_500_NAD/3-PG (500 μM NAD/500 μM 3-PG)
Type: biochemical
[1] = 250 μM NAD/500 μM 3-PG, read-out: IC50 (PHGDH_HIGH_NAD/3-PG)
[2] = 500 μM NAD/500 μM 3-PG, read-out: IC50 (PHGDH_500_NAD/3-PG)

PHGDH, sequence (O43175 2-533 limits assumed): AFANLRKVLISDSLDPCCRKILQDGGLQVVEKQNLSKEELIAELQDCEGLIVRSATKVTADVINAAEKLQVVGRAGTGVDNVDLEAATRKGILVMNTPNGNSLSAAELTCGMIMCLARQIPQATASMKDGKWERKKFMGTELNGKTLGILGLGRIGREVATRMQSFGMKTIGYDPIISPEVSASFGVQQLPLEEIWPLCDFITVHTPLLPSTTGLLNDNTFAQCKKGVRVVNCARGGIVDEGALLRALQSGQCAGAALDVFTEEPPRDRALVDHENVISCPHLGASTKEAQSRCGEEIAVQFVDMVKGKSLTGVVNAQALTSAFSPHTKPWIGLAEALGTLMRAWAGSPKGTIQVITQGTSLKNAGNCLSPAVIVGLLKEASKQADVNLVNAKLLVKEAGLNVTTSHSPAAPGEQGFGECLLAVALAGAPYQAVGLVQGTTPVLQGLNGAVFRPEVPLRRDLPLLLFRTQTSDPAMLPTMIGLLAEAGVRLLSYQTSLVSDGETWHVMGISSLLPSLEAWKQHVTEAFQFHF
Excerpt: This assay is used to identify compounds which inhibit the enzymatic activity of PHGDH which catalyzes the reaction of 3-Phosphoglycerate (3-PG) and NAD to 3-Phosphohydroxypyruvate and NADH.
The produced NADH is used in a coupled reaction for Diaphorase mediated reduction of Resazurin to Resorufin which can be measured in a Fluorescence Intensity readout.
The full length version of PHGDH enzyme was expressed in E. coli with an N-terminal HIS-tag and a TEV cleavage site.
The 3-Phosphoglycerate substrate was purchased from Sigma. NAD, Diaphorase and Resazurin were purchased from Sigma Aldrich.
Compounds are dispensed onto assay plates (black, low volume, flat bottom 384 well, Corning) using an Access Labcyte Workstation with the Labcyte Echo 55× from a DMSO solution. For the chosen highest assay concentration of 100 μM, 150 nl of compound solution are transferred from a 10 mM DMSO compound stock solution. A series of 11 concentrations (10 1:5 steps) is transferred for each compound.
The assay has been performed at two different NAD/3-PG ratios (final assay concentrations):
Plates are kept at room temperature. After 240 minutes incubation time the fluorescence signal is measured in a PerkinElmer Envision HTS Multilabel Reader with an excitation wavelength at 530-560 nm and an emission wavelength at 590 nm.
Each plate contains negative controls (diluted DMSO instead of test compound; reaction as described with PHGDH protein) and positive controls (diluted DMSO instead of test compound; reaction as described with buffer instead of PHGDH protein). Negative and positive control values are used for normalization.
IC50 values are calculated and analyzed in the MEGALAB IC50 application using a 4 parametric logistic model.

`COC(=O)C[S@@+]([O-])c1ccc([C@@H](CO)NC(=O)c2cc3c(Cl)c(Cl)c(C)cc3n2C)cc1` [Example 11-002, methyl 2-[(R)-4-[(1S)-1-[(4,5-dichloro-1,6-dimethyl-1H-indol-2-yl)formamido]-2-hydroxyethyl]benzenesulfinyl]acetate] was tested, and the IC50 [1] was 189 nM and the IC50 [2] was 291 nM.
For `COC(=O)C[S@+]([O-])c1ccc([C@@H](CO)NC(=O)c2cc3c(Cl)c(Cl)c(C)cc3n2C)cc1` [Example 11-003, methyl 2-[(S)-4-[(1S)-1-[(4,5-dichloro-1,6-dimethyl-1H-indol-2-yl)formamido]-2-hydroxyethyl]benzenesulfinyl]acetate], the IC50 [1] was 89 nM and the IC50 [2] was 137 nM.
In the case of `COC(=O)C[S+]([O-])c1ccc([C@@H](CO)NC(=O)c2cc3c(Cl)c(Cl)c(C)cc3n2C)cc1` (stereo partly drawn) [Example 11-004, methyl 2-{4-[(1S)-1-[(4,5-dichloro-1,6-dimethyl-1H-indol-2-yl)formamido]-2-hydroxyethyl]benzenesulfinyl}acetate], the IC50 [1] is reported as 98 nM and the IC50 [2] is reported as 196 nM.
With `COC(=O)C[S+]([O-])c1ccc([C@@H](CO)NC(=O)c2cc3c(Cl)cc(C)cc3n2C)cc1` (stereo partly drawn) [Example 11-005, methyl 2-{4-[(1S)-1-[(4-chloro-1,6-dimethyl-1H-indol-2-yl)formamido]-2-hydroxyethyl]benzenesulfinyl}acetate] the IC50 [1] was 221 nM.
With `COC(=O)C[S@@+]([O-])c1ccc([C@@H](C)NC(=O)c2cc3c(Cl)cc(C)cc3n2C)cc1` [Example 11-006, methyl 2-[(R)-4-[(1R)-1-[(4-chloro-1,6-dimethyl-1H-indol-2-yl)formamido]ethyl]benzenesulfinyl]acetate] the IC50 [1] was 1120 nM.
Work on `COC(=O)C[S@+]([O-])c1ccc([C@@H](C)NC(=O)c2cc3c(Cl)cc(C)cc3n2C)cc1` [Example 11-007, methyl 2-[(S)-4-[(1R)-1-[(4-chloro-1,6-dimethyl-1H-indol-2-yl)formamido]ethyl]benzenesulfinyl]acetate] yielded an IC50 [1] of 234 nM.
With `COC(=O)C[S@+]([O-])c1ccc([C@@H](CO)NC(=O)c2cc3c(Cl)cc(C)cc3n2C)cc1` [Example 11-008, methyl 2-[(S)-4-[(1S)-1-[(4-chloro-1,6-dimethyl-1H-indol-2-yl)formamido]-2-hydroxyethyl]benzenesulfinyl]acetate] the IC50 [1] was 120 nM.
With `COC(=O)C[S+]([O-])c1ccc([C@@H](C)NC(=O)c2cc3c(Cl)cc(C)cc3n2C)cc1` (stereo partly drawn) [Example 11-009, methyl 2-{4-[(1R)-1-[(4-chloro-1,6-dimethyl-1H-indol-2-yl)formamido]ethyl]benzenesulfinyl}acetate] the IC50 [1] was 612 nM.
In the case of `COC(=O)C[S@@+]([O-])c1ccc([C@@H](CO)NC(=O)c2cc3c(Cl)cc(C)cc3n2C)cc1` [Example 11-010, methyl 2-[(R)-4-[(1S)-1-[(4-chloro-1,6-dimethyl-1H-indol-2-yl)formamido]-2-hydroxyethyl]benzenesulfinyl]acetate], the IC50 [1] is reported as 447 nM.
In the case of `Cc1cc2c(cc(C(=O)N[C@H](CO)c3ccc([S@@+]([O-])CC(=O)O)cc3)n2C)c(Cl)c1Cl` [Example 12-001, 2-[(S)-4-[(1S)-1-[(4,5-dichloro-1,6-dimethyl-1H-indol-2-yl)formamido]-2-hydroxyethyl]benzenesulfinyl]acetic acid], the IC50 [1] is reported as 7 nM and the IC50 [2] is reported as 9 nM.
`Cc1cc2c(cc(C(=O)N[C@H](CO)c3ccc([S@+]([O-])CC(=O)O)cc3)n2C)c(Cl)c1Cl` [Example 12-002, 2-[(R)-4-[(1S)-1-[(4,5-dichloro-1,6-dimethyl-1H-indol-2-yl)formamido]-2-hydroxyethyl]benzenesulfinyl]acetic acid] gave an IC50 [1] of 3 nM and an IC50 [2] of 4 nM.
`Cc1cc2c(cc(C(=O)N[C@H](CO)c3ccc([S+]([O-])CC(=O)O)cc3)n2C)c(Cl)c1Cl` (stereo partly drawn) [Example 12-003, 2-{4-[(1S)-1-[(4,5-dichloro-1,6-dimethyl-1H-indol-2-yl)formamido]-2-hydroxyethyl]benzenesulfinyl}acetic acid] showed an IC50 [1] of 3 nM and an IC50 [2] of 5 nM.
For `Cc1cc(Cl)c2cc(C(=O)N[C@H](C)c3ccc([S+]([O-])CC(=O)O)cc3)n(C)c2c1` (stereo partly drawn) [Example 12-004, 2-{4-[(1R)-1-[(4-chloro-1,6-dimethyl-1H-indol-2-yl)formamido]ethyl]benzenesulfinyl}acetic acid], the IC50 [1] was 11 nM and the IC50 [2] was 18 nM.
`Cc1cc(Cl)c2cc(C(=O)N[C@H](C)c3ccc([S@+]([O-])CC(=O)O)cc3)n(C)c2c1` [Example 12-005, 2-[(R)-4-[(1R)-1-[(4-chloro-1,6-dimethyl-1H-indol-2-yl)formamido]ethyl]benzenesulfinyl]acetic acid] showed an IC50 [1] of 17 nM and an IC50 [2] of 28 nM.
With `Cc1cc(Cl)c2cc(C(=O)N[C@H](C)c3ccc([S@@+]([O-])CC(=O)O)cc3)n(C)c2c1` [Example 12-006, 2-[(S)-4-[(1R)-1-[(4-chloro-1,6-dimethyl-1H-indol-2-yl)formamido]ethyl]benzenesulfinyl]acetic acid] the IC50 [1] was 61 nM and the IC50 [2] was 95 nM.
With `Cc1cc(Cl)c2cc(C(=O)N[C@H](CO)c3ccc([S+]([O-])CC(=O)O)cc3)n(C)c2c1` (stereo partly drawn) [Example 12-007, 2-{4-[(1S)-1-[(4-chloro-1,6-dimethyl-1H-indol-2-yl)formamido]-2-hydroxyethyl]benzenesulfinyl}acetic acid] the IC50 [1] was 8 nM and the IC50 [2] was 11 nM.
`Cc1cc2c(cc(C(=O)N[C@H](C)c3ccc([S+]([O-])CC(=O)O)cc3)n2C)c(Cl)c1Cl` (stereo partly drawn) [Example 12-008, 2-{4-[(1R)-1-[(4,5-dichloro-1,6-dimethyl-1H-indol-2-yl)formamido]ethyl]benzenesulfinyl}acetic acid] showed an IC50 [2] of 8 nM.
Work on `Cc1cc2c(cc(C(=O)N[C@H](CO)c3ccc([S@+]([O-])CC(=O)O)cc3)n2C)c(F)c1F` [Example 12-009, 2-[(R)-4-[(1S)-1-[(4,5-difluoro-1,6-dimethyl-1H-indol-2-yl)formamido]-2-hydroxyethyl]benzenesulfinyl]acetic acid] yielded an IC50 [2] of 32 nM.
`Cc1cc2c(cc(C(=O)N[C@H](CO)c3ccc([S@@+]([O-])CC(=O)O)cc3)n2C)c(F)c1F` [Example 12-010, 2-[(S)-4-[(1S)-1-[(4,5-difluoro-1,6-dimethyl-1H-indol-2-yl)formamido]-2-hydroxyethyl]benzenesulfinyl]acetic acid] was tested, and the IC50 [2] was 10 nM.
`Cc1cc2c(cc(C(=O)N[C@H](CO)c3ccc([S@+]([O-])CC(=O)OC(C)C)cc3)n2C)c(Cl)c1Cl` [Example 13-001, propan-2-yl 2-[(R)-4-[(1S)-1-[(4,5-dichloro-1,6-dimethyl-1H-indol-2-yl)formamido]-2-hydroxyethyl]benzenesulfinyl]acetate] showed an IC50 [1] of 204 nM and an IC50 [2] of 305 nM.
`Cc1cc2c(cc(C(=O)N[C@H](CO)c3ccc([S@@+]([O-])CC(=O)OC(C)C)cc3)n2C)c(Cl)c1Cl` [Example 13-002, propan-2-yl 2-[(S)-4-[(1S)-1-[(4,5-dichloro-1,6-dimethyl-1H-indol-2-yl)formamido]-2-hydroxyethyl]benzenesulfinyl]acetate] showed an IC50 [1] of 819 nM and an IC50 [2] of 1020 nM.
Compound `Cc1cc2c(cc(C(=O)N[C@H](CO)c3ccc([S@@+]([O-])CC(=O)OC4CCOCC4)cc3)n2C)c(Cl)c1Cl` [Example 13-003, oxan-4-yl 2-[(S)-4-[(1S)-1-[(4,5-dichloro-1,6-dimethyl-1H-indol-2-yl)formamido]-2-hydroxyethyl]benzenesulfinyl]acetate] has an IC50 [2] of 211 nM.
Work on `Cc1cc2c(cc(C(=O)N[C@H](CO)c3ccc([S@@+]([O-])CC(=O)OC(C)C)cc3)n2C)c(F)c1F` [Example 13-004, propan-2-yl 2-[(S)-4-[(1S)-1-[(4,5-difluoro-1,6-dimethyl-1H-indol-2-yl)formamido]-2-hydroxyethyl]benzenesulfinyl]acetate] yielded an IC50 [2] of 690 nM.
For `Cc1cc2c(cc(C(=O)N[C@H](CO)c3ccc([S@+]([O-])CC(=O)OC4CCOCC4)cc3)n2C)c(Cl)c1Cl` [Example 13-005, oxan-4-yl 2-[(R)-4-[(1S)-1-[(4,5-dichloro-1,6-dimethyl-1H-indol-2-yl)formamido]-2-hydroxyethyl]benzenesulfinyl]acetate], the IC50 [2] was 191 nM.
Compound `Cc1cc2c(cc(C(=O)N[C@H](CO)c3ccc([S@+]([O-])CC(=O)OC(C)C)cc3)n2C)c(F)c1F` [Example 13-006, propan-2-yl 2-[(R)-4-[(1S)-1-[(4,5-difluoro-1,6-dimethyl-1H-indol-2-yl)formamido]-2-hydroxyethyl]benzenesulfinyl]acetate] has an IC50 [2] of 2080 nM.
`Cc1cc(Cl)c2cc(C(=O)N[C@H](C)c3ccc([S+]([O-])CC(=O)OC(C)C)cc3)n(C)c2c1` (stereo partly drawn) [Example 13-007, propan-2-yl 2-{4-[(1R)-1-[(4-chloro-1,6-dimethyl-1H-indol-2-yl)formamido]ethyl]benzenesulfinyl}acetate] showed an IC50 [1] of 2140 nM.
With `Cc1cc(Cl)c2cc(C(=O)N[C@H](CO)c3ccc([S+]([O-])CC(=O)OC(C)C)cc3)n(C)c2c1` (stereo partly drawn) [Example 13-008, propan-2-yl 2-{4-[(1S)-1-[(4-chloro-1,6-dimethyl-1H-indol-2-yl)formamido]-2-hydroxyethyl]benzenesulfinyl}acetate] the IC50 [1] was 695 nM and the IC50 [2] was 1200 nM.
With `Cc1cc2c(cc(C(=O)N[C@H](CO)c3ccc([S+]([O-])CC(=O)OC(C)C)cc3)n2C)c(Cl)c1Cl` (stereo partly drawn) [Example 13-009, propan-2-yl 2-{4-[(1S)-1-[(4,5-dichloro-1,6-dimethyl-1H-indol-2-yl)formamido]-2-hydroxyethyl]benzenesulfinyl}acetate] the IC50 [1] was 428 nM and the IC50 [2] was 797 nM.
For `Cc1cc2c(cc(C(=O)N[C@H](CO)c3ccc([S+]([O-])CC(=O)OC(C)C)cc3)n2C)c(F)c1F` (stereo partly drawn) [Example 13-010, propan-2-yl 2-{4-[(1S)-1-[(4,5-difluoro-1,6-dimethyl-1H-indol-2-yl)formamido]-2-hydroxyethyl]benzenesulfinyl}acetate], the IC50 [2] was 1060 nM.
For `Cc1cc2c(cc(C(=O)N[C@H](C)c3ccc([S+]([O-])CC(=O)OC(C)C)cc3)n2C)c(Cl)c1Cl` (stereo partly drawn) [Example 13-011, propan-2-yl 2-{4-[(1R)-1-[(4,5-dichloro-1,6-dimethyl-1H-indol-2-yl)formamido]ethyl]benzenesulfinyl}acetate], the IC50 [2] was 1740 nM.
